“Also recorded” adds a separate entry of the source.
Assays:
[1] = system: ZR-75-1 (breast ductal carcinoma, Rb-positive); assay: Cellular proliferation assay (CellTiter-Glo), ZR-75-1; type: cell-based
Protocol: Cellular proliferation assays were conducted using the following cancer cell lines: MCF7 (breast adenocarcinoma—Rb-positive), ZR-75-1 (breast ductal carcinoma—Rb-positive), H69 (human small cell lung cancer—Rb-negative) cells, or A2058 (human metastatic melanoma cells—Rb-negative). These cells were seeded in Costar (Tewksbury, Mass.) […] 96 well tissue culture treated white walled/clear bottom plates. Cells were treated with the compounds of Table 1 as nine point dose response dilution series from 10 uM to 1 nM. Cells were exposed to compounds and then cell viability was determined after either four (H69) or six (MCF7, ZR75-1, A2058) days as indicated using the CellTiter-Glo® luminescent cell viability assay (CTG; Promega, Madison, Wis., United States of America) following the manufacturer's recommendations. Plates were read on BioTek (Winooski, Vt.) Syngergy2 multi-mode plate reader. The Relative Light Units (RLU) were plotted as a result of variable molar concentration and data was analyzed using Graphpad (LaJolla, Calif.) Prism 5 statistical software to determine the EC50 for each compound.

[2] = Mouse pharmacokinetics (oral gavage / intravenous); type: in vivo, mice; details: plasma, 30 mg/kg, read-out: F (oral bioavailability)
Protocol: Blood samples were taken at 0, 0.25, 0.5, 1.0, 2.0, 4.0, and 8.0 hours post dosing and the plasma concentrations were determined by HPLC.

HSPCs (LKS+) = assay: Bone marrow HSPC proliferation by EdU incorporation and flow cytometry; type: in vivo; details: 150 mg/kg oral gavage, mice
Protocol: . JCNI 2012; 104(6):476-487 (FIG. 2A). […].
Mice were then sacrificed at the indicated times (0, 12, 24, 36, or 48 hours following compound administration), and bone marrow was harvested (n=3 mice per time point), as previously described (Johnson et al. J. Clin. Invest. (2010) 120(7), 2528-2536). Four hours before the bone marrow was harvested, mice were treated with 100 μg of EdU by intraperitoneal injection (Invitrogen). Bone marrow mononuclear cells were harvested and immunophenotyped using previously described methods and percent EdU positive cells were then determined (Johnson et al. J. Clin. Invest. (2010) 120(7), 2528-2536). In brief, HSPCs were identified by expression of lineage markers (Lin−), Sca1 (S+), and c-Kit (K+).
Four hours before animals were sacrificed and the bone marrow was harvested, mice were treated with 100 μg of EdU by intraperitoneal injection. Three mice per group were sacrificed at 12 hours and the remaining three animals per group were sacrificed at 24 hours. Results are shown in FIG. 5A as the ratio of EdU positive cells for treated animals at 12 or 24 hour time points compared to control.
Further experiments were completed with Compound T examining dose response and longer periods of compound treatment. […] […].
Both compounds were administered at 150 mg/kg by oral gavage. One hour prior to harvesting bone marrow, EdU was IP injected to label cycling cells. Bone marrow was harvested at 12, 24, 36, and 48 hours after compound treatment and the percentage of EdU positive HSPC cells was determined at each time point.

[3] = Metabolic stability in liver microsomes; type: in vitro ADME, human, dog, rat, monkey, and mouse; details: each of the species tested
Protocol: Human, mouse, and dog liver microsomes were purchased from Xenotech, and Sprague-Dawley rat liver microsomes were prepared by Absorption Systems. The reaction mixture comprising 0.5 mg/mL of liver microsomes, 100 mM of potassium phosphate, pH 7.4, 5 mM of magnesium chloride, and 1 uM of test compound was prepared. The test compound was added into the reaction mixture at a final concentration of 1 uM. An aliquot of the reaction mixture (without cofactor) was incubated in shaking water bath at 37 deg. C. for 3 minutes. The control compound, testosterone, was run simultaneously with the test compound in a separate reaction. The reaction was initiated by the addition of cofactor (NADPH), and the mixture was then incubated in a shaking water bath at 37 deg. C. Aliquots (100 μL) were withdrawn at 0, 10, 20, 30, and 60 minutes for the test compound and 0, 10, 30, and 60 minutes for testosterone. […] Test compound samples were analyzed using the Orbitrap high resolution mass spectrometer to quantify the disappearance of parent test compound and detect the appearance of metabolites. […] Half-lives were calculated using GraphPad software, fitting to a single-phase exponential decay equation.
When calculated half-life was longer than the duration of the experiment, the half-life was expressed as >the longest incubation time. The calculated half-life is also listed in parentheses. […]

[4] = system: tHS68 cells (CDK4/6-dependent, Rb-positive); assay: Cell cycle arrest (propidium iodide flow cytometry), tHS68; type: cell-based; details: 24 hours
Source text: (§1) To test the ability of CDK4/6 inhibitors to induce a clean G1-arrest, a cell based screening method was used consisting of two CDK4/6-dependent cell lines (tHS68 and WM2664; Rb-positive) and one CDK4/6-independent (A2058; Rb-negative) cell line. […] At the conclusion of the experiment, cells were harvested, fixed, and stained with propidium iodide (a DNA intercalator), which fluoresces strongly red (emission maximum 637 nm) when excited by 488 nm light. Samples were run on Dako Cyan flow cytometer and >10,000 events were collected for each sample. Data were analyzed using FlowJo 2.2 software developed by TreeStar, Inc.

[5] = system: A2058 cells (CDK4/6-independent, Rb-negative); assay: Cell cycle arrest (propidium iodide flow cytometry), A2058; type: cell-based; details: 300 nM, 24 hours
Source text: as §1

For CN1CCN(c2ccc(Nc3ncc4cc5n(c4n3)C3(CCCCC3)CNC5=O)nc2)CC1 [T], the “activity against ZR75-1 cells compared with PD0332991 (FIG. 25)” value [1] was “more potent activity against ZR75-1 cells than PD0332991”, the “inhibition of cellular proliferation of ZR75-1 cells (FIGS. 25-28)” value [1] was “significant inhibition of cellular proliferation” and the bioavailability [2] was 80%. The “EdU incorporation into HSPCs at 12 and 24 hours (FIG. 5A)” value (HSPCs (LKS+)) was “reduction in EdU incorporation at 12 hours which was starting to return to normal at 24 hours”, the “half-life in liver microsomes compared with PD0332991” value [3] was “shorter in each species” and the “cell cycle distribution after treatment” value ([4]; 300 nM, tHS68) was “causes a loss of the S-phase peak”. For the same compound, the “S-phase cells at the highest concentration shown” value ([4]; tHS68 cells, 28% at baseline) was 6% and the “cell cycle distribution after treatment” value [5] was “no effect; also recorded: does not cause a loss of the S-phase peak”.
